# Test results reported in patent publication US20240166646A1, “1H-PYRROLO[2,3-B]PYRIDINE DERIVATIVES AS BCL-2 INHIBITORS FOR THE TREATMENT OF NEOPLASTIC AND AUTOIMMUNE DISEASES” (Newave Pharmaceutical Inc., priority 2020, published 2024).
# pIC50: −log10 of the molar value.
# Tests used:
# Bcl-2 = Bcl-2 (Homo sapiens (Human), UniProt P10415); experiment: Bcl-2 competition binding (fluorescence polarization) assay; conditions: fluorescein labeled BH3 peptide 15 nM, Bcl-2 protein 30 nM, 3 hours of incubation at room temperature
# Method in brief: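 Fluorescence polarization competition of 15 nM labeled 23-mer BH3 peptide with 30 nM purified Bcl-2, in 20 mM Hepes pH 7.0, 50 mM KCl, 5 mM MgCl2, 20 mM Na2MoO4, 0.1 mg/ml bovine gamma globulin, 0.01% NP40. Compounds 20 μM to 2 nM final; mP read after 3 h at room temperature, background-subtracted. IC50 from sigmoidal dose-response fit.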
# [1] = system: BCL-2-dependent acute lymphoblastic leukemia (ALL) cell line RS4; 11 with G101V mutation; experiment: In vitro anti-proliferation assay (ATPlite) in RS4; 11 with G101V mutation; type: cell-based; conditions: about 72 hours incubation, medium with 5% FBS or 10% normal human serum, ATPlite luminescence
# Experimental: Cell antiproliferation was assayed by PerkinElmer ATPlite™ Luminescence Assay System. Briefly, the various test cancer cell lines were plated at a density of about 1×10^4 cells per well in Costar 96-well plates, and were incubated with different concentrations of compounds for about 72 hours in medium supplemented with 5% FBS or 10% normal human serum (NHS). One lyophilized substrate solution vial was then reconstituted by adding 5 mL of substrate buffer solution, and was agitated gently until the solution was homogeneous. About 50 μL of mammalian cell lysis solution was added to 100 μL of cell suspension per well of a microplate, and the plate was shaken for about five minutes in an orbital shaker at ˜700 rpm. This procedure was used to lyse the cells and to stabilize the ATP. Next, 50 μL substrate solution was added to the wells and microplate was shaken for five minutes in an orbital shaker at ˜700 rpm. Finally, the luminescence was measured by a PerkinElmer TopCount® Microplate Scintillation Counter. Such assays, carried out with a range of doses of test compounds, allowed the determination of the cellular anti-antiproliferative IC50 of the compounds of the present invention.
# Sequence of Bcl-2 (P10415 whole entry): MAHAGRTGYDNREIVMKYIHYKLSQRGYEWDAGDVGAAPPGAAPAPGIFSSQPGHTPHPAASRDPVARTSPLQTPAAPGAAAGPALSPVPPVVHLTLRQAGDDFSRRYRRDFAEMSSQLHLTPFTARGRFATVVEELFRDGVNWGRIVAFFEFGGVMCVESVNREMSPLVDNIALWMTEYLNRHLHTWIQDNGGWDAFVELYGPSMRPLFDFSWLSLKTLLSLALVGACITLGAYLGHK
Compound,pIC50 (Bcl-2),pIC50 [1],pIC50 ([1]; RS4-11)
"Cc1ccccc1[C@@H]1CCCN1C1CC2(CCN(c3ccc(C(=O)NS(=O)(=O)c4ccc(NCC5CCC(C)(O)CC5)c([N+](=O)[O-])c4)c(N4c5cc6cc[nH]c6nc5O[C@@H]5COC[C@H]54)c3)CC2)C1 (stereo partly drawn) [Example 40, N-((4-((((1s,4s)-4-hydroxy-4-methylcyclohexyl)methyl)amino)-3-nitrophenyl)sulfonyl)-2-((5aR,8aS)-5a,6,8,8a-tetrahydrofuro[3,4-b]pyrrolo[3′,2′:5,6]pyrido[3,2-e][1,4]oxazin-5(1H)-yl)-4-(2-((S)-2-(o-tolyl)pyrrolidin-1-yl)-7-azaspiro[3.5]nonan-7-yl)benzamide]",9.70,7.46,–
"Cc1ccccc1[C@@H]1CCCN1C1CC2(CCN(c3ccc(C(=O)NS(=O)(=O)c4ccc(NCC5CCC(C)(O)CC5)c([N+](=O)[O-])c4)c(N4c5cc6cc[nH]c6nc5O[C@@H]5COC[C@H]54)c3)CC2)C1 (stereo partly drawn) [Example 41, N-((4-((((1r,4r)-4-hydroxy-4-methylcyclohexyl)methyl)amino)-3-nitrophenyl)sulfonyl)-2-((5aR,8aS)-5a,6,8,8a-tetrahydrofuro[3,4-b]pyrrolo[3′,2′:5,6]pyrido[3,2-e][1,4]oxazin-5(1H)-yl)-4-(2-((S)-2-(o-tolyl)pyrrolidin-1-yl)-7-azaspiro[3.5]nonan-7-yl)benzamide]",9.74,7.83,–
"CC(C)Oc1ccccc1[C@@H]1CCCN1C1CC2(CCN(c3ccc(C(=O)NS(=O)(=O)c4ccc(NCC5(F)CCOCC5)c([N+](=O)[O-])c4)c(N4c5cc6cc[nH]c6nc5O[C@@H]5COC[C@H]54)c3)CC2)C1 [Example 42, N-((4-(((4-fluorotetrahydro-2H-pyran-4-yl)methyl)amino)-3-nitrophenyl)sulfonyl)-4-(2-((S)-2-(2-isopropoxyphenyl)pyrrolidin-1-yl)-7-azaspiro[3.5]nonan-7-yl)-2-((5aR,8aS)-5a,6,8,8a-tetrahydrofuro[3,4-b]pyrrolo[3′,2′:5,6]pyrido[3,2-e][1,4]oxazin-5(1H)-yl)benzamide]",9.66,–,7.53
"CC(C)Oc1ccccc1[C@@H]1CCCN1C1CC2(CCN(c3ccc(C(=O)NS(=O)(=O)c4ccc(NC[C@H]5COCCO5)c([N+](=O)[O-])c4)c(N4c5cc6cc[nH]c6nc5O[C@@H]5COC[C@H]54)c3)CC2)C1 [Example 43, N-((4-((((S)-1,4-dioxan-2-yl)methyl)amino)-3-nitrophenyl)sulfonyl)-4-(2-((S)-2-(2-isopropoxyphenyl)pyrrolidin-1-yl)-7-azaspiro[3.5]nonan-7-yl)-2-((5aR,8aS)-5a,6,8,8a-tetrahydrofuro[3,4-b]pyrrolo[3′,2′:5,6]pyrido[3,2-e][1,4]oxazin-5(1H)-yl)benzamide]",9.55,–,7.06
"CC(C)Oc1ccccc1[C@@H]1CCCN1C1CC2(CCN(c3ccc(C(=O)NS(=O)(=O)c4ccc(NCC5CCC(C)(O)CC5)c([N+](=O)[O-])c4)c(N4c5cc6cc[nH]c6nc5O[C@@H]5COC[C@H]54)c3)CC2)C1 (stereo partly drawn) [Example 44, N-((4-((((1s,4s)-4-hydroxy-4-methylcyclohexyl)methyl)amino)-3-nitrophenyl)sulfonyl)-4-(2-((S)-2-(2-isopropoxyphenyl)pyrrolidin-1-yl)-7-azaspiro[3.5]nonan-7-yl)-2-((5aR,8aS)-5a,6,8,8a-tetrahydrofuro[3,4-b]pyrrolo[3′,2′:5,6]pyrido[3,2-e][1,4]oxazin-5(1H)-yl)benzamide]",9.75,7.01,–
"CC(C)Oc1ccccc1[C@@H]1CCCN1C1CC2(CCN(c3ccc(C(=O)NS(=O)(=O)c4ccc(NCC5CCC(C)(O)CC5)c([N+](=O)[O-])c4)c(N4c5cc6cc[nH]c6nc5O[C@@H]5COC[C@H]54)c3)CC2)C1 (stereo partly drawn) [Example 45, N-((4-((((1r,4r)-4-hydroxy-4-methylcyclohexyl)methyl)amino)-3-nitrophenyl)sulfonyl)-4-(2-((S)-2-(2-isopropoxyphenyl)pyrrolidin-1-yl)-7-azaspiro[3.5]nonan-7-yl)-2-((5aR,8aS)-5a,6,8,8a-tetrahydrofuro[3,4-b]pyrrolo[3′,2′:5,6]pyrido[3,2-e][1,4]oxazin-5(1H)-yl)benzamide]",9.70,7.62,–
"CC(C)(C)c1ccccc1[C@@H]1CCCN1C1CC2(CCN(c3ccc(C(=O)NS(=O)(=O)c4ccc(NCC5CCOCC5)c([N+](=O)[O-])c4)c(N4c5cc6cc[nH]c6nc5O[C@@H]5COC[C@H]54)c3)CC2)C1 [Example 46, 4-{2-[(2S)-2-(2-tert-butylphenyl)pyrrolidin-1-yl]-7-azaspiro[3.5]nonan-7-yl}-2-[(11R,15S)-13,16-dioxa-2,4,10-triazatetracyclo[7.7.0.0^{3,7}.0^{11,15}]hexadeca-1(9),2,5,7-tetraen-10-yl]-N-{3-nitro-4-[(oxan-4-ylmethyl)amino]benzenesulfonyl}benzamide]",9.40,7.24,–

# Now from value to molecule, other results behind:
pIC50 (Bcl-2),Compound,pIC50 [1],pIC50 ([1]; RS4-11)
9.51,"CC#Cc1ccccc1[C@@H]1CCCN1C1CC2(CCN(c3ccc(C(=O)NS(=O)(=O)c4ccc(NCC5CCOCC5)c([N+](=O)[O-])c4)c(N4c5cc6cc[nH]c6nc5O[C@@H]5COC[C@H]54)c3)CC2)C1 [Example 47, N-((3-nitro-4-(((tetrahydro-2H-pyran-4-yl)methyl)amino)phenyl)sulfonyl)-4-(2-((S)-2-(2-(prop-1-yn-1-yl)phenyl)pyrrolidin-1-yl)-7-azaspiro[3.5]nonan-7-yl)-2-((5aR,8aS)-5a,6,8,8a-tetrahydrofuro[3,4-b]pyrrolo[3′,2′:5,6]pyrido[3,2-e][1,4]oxazin-5(1H)-yl)benzamide]",–,6.54
9.58,"Cc1ccccc1[C@@H]1COCCN1C1CC2(CCN(c3ccc(C(=O)NS(=O)(=O)c4ccc(NCC5CCOCC5)c([N+](=O)[O-])c4)c(N4c5cc6cc[nH]c6nc5O[C@@H]5COC[C@H]54)c3)CC2)C1 [Example 50, N-((3-nitro-4-(((tetrahydro-2H-pyran-4-yl)methyl)amino)phenyl)sulfonyl)-2-((5aR,8aS)-5a,6,8,8a-tetrahydrofuro[3,4-b]pyrrolo[3′,2′:5,6]pyrido[3,2-e][1,4]oxazin-5(1H)-yl)-4-(2-((R)-3-(o-tolyl)morpholino)-7-azaspiro[3.5]nonan-7-yl)benzamide]",–,7.14
8.97,"Cc1ccccc1[C@H]1COCCN1C1CC2(CCN(c3ccc(C(=O)NS(=O)(=O)c4ccc(NCC5CCOCC5)c([N+](=O)[O-])c4)c(N4c5cc6cc[nH]c6nc5O[C@@H]5COC[C@H]54)c3)CC2)C1 [Example 51, N-((3-nitro-4-(((tetrahydro-2H-pyran-4-yl)methyl)amino)phenyl)sulfonyl)-2-((5aR,8aS)-5a,6,8,8a-tetrahydrofuro[3,4-b]pyrrolo[3′,2′:5,6]pyrido[3,2-e][1,4]oxazin-5(1H)-yl)-4-(2-((S)-3-(o-tolyl)morpholino)-7-azaspiro[3.5]nonan-7-yl)benzamide]",–,6.44
9.23,"CC(C)Oc1ccccc1[C@@H]1CCCN1C1CC2(CCN(c3ccc(C(=O)NS(=O)(=O)c4ccc(NCC5CCOCC5)c([N+](=O)[O-])c4)c(N4c5cc6cc[nH]c6nc5O[C@H]5COC[C@H]54)c3)CC2)C1 [Example 54, 4-(2-((S)-2-(2-isopropoxyphenyl)pyrrolidin-1-yl)-7-azaspiro[3.5]nonan-7-yl)-N-((3-nitro-4-(((tetrahydro-2H-pyran-4-yl)methyl)amino)phenyl)sulfonyl)-2-((5aR,8aR)-5a,6,8,8a-tetrahydrofuro[3,4-b]pyrrolo[3′,2′:5,6]pyrido[3,2-e][1,4]oxazin-5(1H)-yl)benzamide]",–,< 6.00
